Experimental data from ChEMBL document CHEMBL3137667, “[Drug-induced liver injury; fourteenth updated edition of the bibliographic database of liver injuries and related drugs]” (Gastroenterol Clin Biol, 2004).

What was measured:
[1] = Highest frequency of moderate liver toxicity observed during clinical trials, expressed as a percentage. [column '% BIOL' in source]; conditions: human
[2] = Highest frequency of acute liver toxicity observed during clinical trials, expressed as a percentage. [column '% AIGUE' in source]; conditions: human
[3] = Times to onset, minimal and maximal, observed in the indexed observations. [column 'DELAI' in source]; conditions: human
[4] = human, serum
[5] = human, serum; remark: listed apart in the source
[6] = human
[7] = human; remark: listed apart in the source
[8] = human; remark: listed apart in the source
[9] = human, serum, 4383 h
[10] = human; remark: listed apart in the source
[11] = human; remark: listed apart in the source
[12] = human; remark: listed apart in the source
[13] = human; remark: listed apart in the source
[14] = human; remark: listed apart in the source
[15] = human; remark: listed apart in the source
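Wherever Hepatotoxicity (association with vascular disease) is given: count of indexed literature references reporting vascular liver injury in humans, e.g. peliosis hepatitis, hepatic veno-occlusive disease or Budd-Chiari syndrome.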
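Wherever Hepatotoxicity (benign tumour) is given: value is a count of indexed literature references citing a benign tumour confirmed by histopathology.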
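Wherever Hepatotoxicity (choleostasis) is given: human cholestatic liver injury, shown by histopathology or by peak ALT or AST elevation over alkaline phosphatase ratio below 2, value counts indexed literature reports.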
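Wherever Hepatotoxicity (chronic liver disease) is given: chronic liver injury confirmed by histopathology or persistently raised serum aminotransferase activity beyond 6 months, value given as the count of indexed literature references.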
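Wherever Hepatotoxicity (cirrhosis) is given: value is a count of indexed literature references reporting cirrhosis confirmed by histopathology.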
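Wherever Hepatotoxicity (cytolytic) is given: human cytolytic liver injury, shown by histopathology or by a ratio above 5 of peak ALT or AST elevation to alkaline phosphatase elevation, value counts indexed references.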
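Wherever Hepatotoxicity (granulomatous hepatitis) is given: value is a count of indexed literature references reporting granulomatous liver disease confirmed by histopathology.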
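Wherever Hepatotoxicity (malignant tumour) is given: malignant tumour confirmed by histopathology, value gives the count of indexed literature references reporting it.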
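Wherever Hepatotoxicity (severe hepatitis) is given: human clinical data: severe hepatitis, meaning potentially life-threatening liver failure or clinically observed cases, the value counts how many indexed literature references report it.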
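Wherever Hepatotoxicity (steatosis) is given: steatosis confirmed by histopathology, value is the count of indexed references.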

| Compound | Hepatotoxicity (moderate) [1] [%] | Hepatotoxicity (acute) [2] [%] | Hepatotoxicity (time to onset) [3] | Hepatotoxicity (moderate) [4] | Hepatotoxicity (acute) [5] | Hepatotoxicity (cytolytic) [6] | Hepatotoxicity (choleostasis) [7] | Hepatotoxicity (severe hepatitis) [8] | Hepatotoxicity (chronic liver disease) [9] | Hepatotoxicity (cirrhosis) [10] | Hepatotoxicity (granulomatous hepatitis) [11] | Hepatotoxicity (association with vascular disease) [12] | Hepatotoxicity (steatosis) [13] | Hepatotoxicity (malignant tumour) [14] | Hepatotoxicity (benign tumour) [15] | Hepatotoxicity (moderate) ([1]; Liver) [%] | Hepatotoxicity (acute) ([2]; Liver) [%] | Hepatotoxicity (severe hepatitis) ([8]; Liver) |
| --- | --- | --- | --- | --- | --- | --- | --- | --- | --- | --- | --- | --- | --- | --- | --- | --- | --- | --- |
| CC(C)(S)C(=O)N[C@@H](CS)C(=O)O [BUCILLAMINE] | 9.4 | 0 | 2 weeks | 5 | 0 | 0 | 0 | 0 | 0 | 0 | 0 | 0 | 0 | 0 | 0 |  |  |  |
| CCCC1O[C@@H]2C[C@H]3[C@@H]4CCC5=CC(=O)C=C[C@]5(C)[C@H]4[C@@H](O)C[C@]3(C)[C@]2(C(=O)CO)O1 (stereo not given in full) [BUDESONIDE] | 0 | 0 | 19 days | 0 | 1 | 1 | 0 | 0 | 0 | 0 | 0 | 0 | 0 | 0 | 0 |  |  |  |
| CCCCNc1cc(C(=O)O)cc(S(N)(=O)=O)c1Oc1ccccc1 [BUMETANIDE] |  |  | 2 weeks - 6 months | 3 | 0 | 0 | 0 |  | 0 | 0 | 0 | 0 | 0 | 0 | 0 | 1.1 | 0 | 0 |
| O=C1CC2(CCCC2)CC(=O)N1CCCCN1CCN(c2ncccn2)CC1 [BUSPIRONE] | 5.3 | 0 | 26 days | 2 | 1 | 1 | 1 | 0 | 0 | 0 | 0 | 0 | 0 | 0 | 0 |  |  |  |
